Laboratory results taken from PMC11783400, “Assessment of Potential Drug–Drug Interactions for Novel Oral Melanocortin‐1 Receptor Agonist Dersimelagon” (Pharmacology Research & Perspectives, 2025).

Key:
OATP1B1 = molecular target: T1, OATP1B1 (Homo sapiens, UniProt Q9Y6L6); experiment: uptake inhibition in HEK293 cells expressing the transporter; assay type: cell-based
T1 construct: gene SLCO1B1; expressed in HEK293 cells
T1 sequence (Q9Y6L6 1-691): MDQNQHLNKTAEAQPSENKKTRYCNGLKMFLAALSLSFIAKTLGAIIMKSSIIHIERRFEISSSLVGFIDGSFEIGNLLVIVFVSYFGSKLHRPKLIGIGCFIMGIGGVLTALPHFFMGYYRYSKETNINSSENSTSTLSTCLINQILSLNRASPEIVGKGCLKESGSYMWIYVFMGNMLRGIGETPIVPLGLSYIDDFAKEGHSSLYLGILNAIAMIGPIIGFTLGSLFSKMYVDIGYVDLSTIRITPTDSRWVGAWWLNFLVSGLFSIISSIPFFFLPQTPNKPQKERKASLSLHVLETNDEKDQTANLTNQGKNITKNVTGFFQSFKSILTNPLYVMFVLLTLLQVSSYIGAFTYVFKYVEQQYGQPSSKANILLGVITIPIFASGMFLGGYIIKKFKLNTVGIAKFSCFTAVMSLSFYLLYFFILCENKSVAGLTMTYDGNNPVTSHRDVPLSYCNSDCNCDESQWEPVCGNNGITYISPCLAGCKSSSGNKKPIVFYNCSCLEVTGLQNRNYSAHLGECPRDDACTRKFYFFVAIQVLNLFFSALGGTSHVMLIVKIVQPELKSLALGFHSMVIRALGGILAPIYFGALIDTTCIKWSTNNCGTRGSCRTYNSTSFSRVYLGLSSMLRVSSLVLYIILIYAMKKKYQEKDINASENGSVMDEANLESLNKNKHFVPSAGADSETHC
Text: uptake inhibition in HEK293 cells expressing the transporter on OATP1B1

OAT1 = molecular target: T2, OAT1 (Homo sapiens, UniProt Q4U2R8); experiment: as above; assay type: cell-based
T2 construct: gene SLC22A6; expressed in HEK293 cells
T2 sequence (Q4U2R8 1-563): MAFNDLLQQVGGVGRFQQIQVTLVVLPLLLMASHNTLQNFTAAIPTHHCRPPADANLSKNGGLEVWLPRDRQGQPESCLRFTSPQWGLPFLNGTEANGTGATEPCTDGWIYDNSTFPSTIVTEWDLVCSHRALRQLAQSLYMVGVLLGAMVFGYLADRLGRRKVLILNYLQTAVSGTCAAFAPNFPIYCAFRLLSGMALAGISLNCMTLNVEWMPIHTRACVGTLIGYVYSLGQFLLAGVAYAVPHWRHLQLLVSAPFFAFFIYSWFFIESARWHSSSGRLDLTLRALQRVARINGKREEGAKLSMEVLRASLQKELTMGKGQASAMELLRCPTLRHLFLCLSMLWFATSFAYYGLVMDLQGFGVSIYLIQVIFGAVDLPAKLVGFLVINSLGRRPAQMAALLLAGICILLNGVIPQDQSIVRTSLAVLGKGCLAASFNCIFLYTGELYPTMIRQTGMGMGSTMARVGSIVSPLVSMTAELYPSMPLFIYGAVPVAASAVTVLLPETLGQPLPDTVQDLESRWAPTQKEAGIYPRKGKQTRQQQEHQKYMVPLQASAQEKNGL
Text: uptake inhibition in HEK293 cells expressing the transporter on OAT1

CYP2B6 = molecular target: T3, CYP2B6 (Homo sapiens, UniProt P20813); experiment: CYP activity inhibition in human liver microsomes; assay type: biochemical; conditions: read-out: IC50 (μM) / Direct inhibition
T3 construct: native enzyme in human liver microsomes
T3 sequence (P20813 1-491): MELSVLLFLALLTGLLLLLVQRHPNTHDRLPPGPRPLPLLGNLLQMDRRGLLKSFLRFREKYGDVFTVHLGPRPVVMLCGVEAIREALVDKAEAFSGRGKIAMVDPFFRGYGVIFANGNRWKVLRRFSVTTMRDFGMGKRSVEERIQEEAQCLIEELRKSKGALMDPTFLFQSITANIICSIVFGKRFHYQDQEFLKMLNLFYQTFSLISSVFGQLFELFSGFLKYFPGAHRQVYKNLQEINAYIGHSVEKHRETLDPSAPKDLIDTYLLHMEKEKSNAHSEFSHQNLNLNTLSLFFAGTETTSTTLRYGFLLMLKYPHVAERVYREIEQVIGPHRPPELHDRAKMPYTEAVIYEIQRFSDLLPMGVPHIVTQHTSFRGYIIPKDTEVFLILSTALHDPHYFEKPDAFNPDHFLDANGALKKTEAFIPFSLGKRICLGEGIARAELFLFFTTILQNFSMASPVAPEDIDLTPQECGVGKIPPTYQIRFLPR
Text: CYP activity inhibition in human liver microsomes on CYP2B6

CYP1A2 = molecular target: T4, CYP1A2 (Homo sapiens, UniProt P05177); experiment: CYP activity inhibition in human liver microsomes; assay type: biochemical; conditions: read-out: IC50 (μM) / Direct inhibition
T4 construct: native enzyme in human liver microsomes
T4 sequence (P05177 2-516): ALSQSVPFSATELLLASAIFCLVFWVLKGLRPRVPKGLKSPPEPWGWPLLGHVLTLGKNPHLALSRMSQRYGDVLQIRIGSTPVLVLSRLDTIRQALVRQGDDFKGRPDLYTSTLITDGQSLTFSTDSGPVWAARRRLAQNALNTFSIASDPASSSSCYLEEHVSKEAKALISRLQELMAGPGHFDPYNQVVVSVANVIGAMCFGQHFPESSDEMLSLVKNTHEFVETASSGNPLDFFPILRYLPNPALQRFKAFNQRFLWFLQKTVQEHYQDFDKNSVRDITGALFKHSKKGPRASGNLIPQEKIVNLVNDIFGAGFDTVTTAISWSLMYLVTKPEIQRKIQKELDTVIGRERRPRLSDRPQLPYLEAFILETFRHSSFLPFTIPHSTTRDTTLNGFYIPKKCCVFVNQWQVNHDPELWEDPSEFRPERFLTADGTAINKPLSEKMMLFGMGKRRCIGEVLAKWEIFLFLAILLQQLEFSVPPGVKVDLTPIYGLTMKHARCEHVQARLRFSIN
Text: CYP activity inhibition in human liver microsomes on CYP1A2

CYP2C8 = molecular target: T5, CYP2C8 (Homo sapiens, UniProt P10632); experiment: CYP activity inhibition in human liver microsomes; assay type: biochemical; conditions: read-out: IC50 (μM) / Direct inhibition
T5 construct: native enzyme in human liver microsomes
T5 sequence (P10632 1-490): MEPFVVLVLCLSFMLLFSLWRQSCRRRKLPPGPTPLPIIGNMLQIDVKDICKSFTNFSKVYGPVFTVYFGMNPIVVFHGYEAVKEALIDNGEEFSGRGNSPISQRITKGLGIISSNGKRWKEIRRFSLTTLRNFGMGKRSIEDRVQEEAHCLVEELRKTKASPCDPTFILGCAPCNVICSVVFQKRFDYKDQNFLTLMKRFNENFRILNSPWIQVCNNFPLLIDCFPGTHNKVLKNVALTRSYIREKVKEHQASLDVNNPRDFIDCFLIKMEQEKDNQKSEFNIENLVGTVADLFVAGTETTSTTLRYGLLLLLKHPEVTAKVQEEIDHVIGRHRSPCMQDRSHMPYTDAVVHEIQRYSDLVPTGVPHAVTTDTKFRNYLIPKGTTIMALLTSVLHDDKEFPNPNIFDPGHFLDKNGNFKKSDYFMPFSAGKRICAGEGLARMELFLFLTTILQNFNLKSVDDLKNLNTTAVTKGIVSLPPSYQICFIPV
Text: CYP activity inhibition in human liver microsomes on CYP2C8

How did the IC50 (OATP1B1) turn out when COC[C@H]1CN(C(=O)[C@]2(F)CN(C3CCCC3)C[C@H]2c2ccc(OC)cc2)C[C@@H]1c1ccc(C(F)(F)F)cc1N1CCC(C(=O)O)CC1 [dersimelagon] was run?
Its IC50 is 0.158 µM.

What about the IC50 (OAT1) of the same compound?
The IC50 was 71.2 µM.

And the IC50 (CYP2B6)?
Its IC50 is 48.9 µM.

And the IC50 (CYP1A2)?
The IC50 was greater than 100 µM.

What about the IC50 (CYP2C8) of the same compound?
The IC50 was 24.2 µM.
